Entries after “also recorded” stand apart in the source; their conditions may differ.
How the values were obtained:
Assay type in all cases: cell-based, human
caspase-3 activity = experiment: Caspase-3 activity assay in Jurkat cells; settings: for increase of caspase-3 activity: 48 h
Source text: Such results are consistent with those expected by the compounds herein.

HeLa cells = experiment: Morphological changes to HeLa cells
Method: (§1) The studies on morphological changes induced by sodium butyrate (5) and But4ManNAc (1) were performed following a reported procedure (45). Briefly, HeLa cells (200,000 cells per well in a 6-well plate) were plated and allowed to form monolayers. After 24 h, the supernatant was aspirated, fresh medium (4.0 mL) was added and treated with either ethanol (20 μL (0.5%), control), 5 (5.0 mM), or 1 (250 μM). For the AD 293 (HEK) cells 2.0×10^6 cells in 10 mL of medium (100 mm tissue culture dishes) were plated and treated, immediately after plating, with either ethanol (50 μL, control), 5 (5.0 mM), or 1 (250 μM). Images were acquired at various time intervals under bright field using a Nikon Eclipse TE200 inverted microscope equipped with a DXM 1200 digital camera.

Jurkat cells = experiment: Cell viability assay (trypan blue exclusion); settings: 200 μM
Method: Jurkat cells (2.0×10^5 cells/mL) were seeded with 1-4 at 200 μM in 6-well T. C. plates. Aliquots of cell suspension (20 μL) were removed on a daily basis diluted with either PBS (20 μL) or trypan blue solution (20 μL) and cell viability was determined by using the standard trypan blue exclusion method; three replicate counts were taken for each condition.

[1] = tested on: sialic acid biosynthesis in Jurkat cells; experiment: Assay for total sialic acid production (periodate-resorcinol); settings: three days
Method: Jurkat cells (5.0×10^6 cells in 10 mL medium) were incubated with 1-5 at various concentrations. […] The cell lysates were analyzed by using an adapted version of the periodate-resorcinol assay (36, 59) with the periodic acid oxidation step performed on ice to allow quantification of total (i.e., free monosaccharide plus glycoconjugate-bound) sialic acid. For each assay, a standard curve was obtained using N-acetylneuraminic acid (Pfanstiehl, Waukegan, Ill.) for calibration.

AD293 (HEK) cells = experiment: Morphological changes / toxicity in AD293 (HEK) cells
Method: as §1

CCCC(=O)OC[C@H]1OC(OC(=O)CCC)[C@@H](NC(C)=O)[C@@H](OC(=O)CCC)[C@@H]1OC(=O)CCC (stereo partly drawn) [compound 1, 2-Acetylamino-2-deoxy-1,3,4,6-tetra-O-butanoyl-α,β-D-mannopyranoside]
apoptosis by caspase-3 activity assay (caspase-3 activity): dose dependent apoptosis | increase of caspase-3 activity (caspase-3 activity; 25 μM): ~4 fold | increase of caspase-3 activity (caspase-3 activity; 50 μM): ~8 fold | increase of caspase-3 activity (caspase-3 activity; 100 μM): ~14 fold | morphological changes / differentiation of HeLa cells (HeLa cells; 3 days, 1 at 250 μM, 5 at 5.0 mM): induced differentiation of HeLa cells; also recorded: growth of extended processes | fold lower concentration for cellular responses than sodium n-butyrate (HeLa cells; HeLa cells): ~20 × | reduced cell viability in trypan blue assay (Jurkat cells): exhibited reduced cell viability | total sialic acid [1]: large increase in total sialic acid | apoptosis / toxicity in AD293 cells (AD293 (HEK) cells; 2 days, 1 at 250 μM, 5 at 5.0 mM): considerable degree of apoptosis; also recorded: toxicity | fold lower concentration for cellular responses than sodium n-butyrate (AD293 (HEK) cells; AD293 cells): ~20 ×

Source: patent US9315532B2, “Fatty acid carbohydrate hybrid molecules as therapeutic agents and methods thereof” (The Johns Hopkins University, priority 2005, dated 2016)
